#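 Following 48 hours of exposure in 96-well plates, responses at five concentrations were used to interpolate endpoints linearly. GI50 marks 50% less growth. Definition used: TGI = concentration required for complete inhibition of growth.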
# Tests used:
# Assay in all cases: growth of human tumour cells (NCI), 48 h
# 786-0 renal = tested on: 786-0 renal
# A498 renal = tested on: A498 renal
# A549 NSCLC = tested on: A549 NSCLC
# ACHN renal = tested on: ACHN renal
# BT-549 breast = tested on: BT-549 breast
# CAKI-1 renal = tested on: CAKI-1 renal
# CCRF-CEM leukemia = tested on: CCRF-CEM leukemia
# COLO 205 colon = tested on: COLO 205 colon
# DU-145 prostate = tested on: DU-145 prostate
# EKVX NSCLC = tested on: EKVX NSCLC
# HCC-2998 colon = tested on: HCC-2998 colon
# HCT-116 colon = tested on: HCT-116 colon
# HCT-15 colon = tested on: HCT-15 colon
# HL-60(TB) leukemia = tested on: HL-60(TB) leukemia
# HOP-62 NSCLC = tested on: HOP-62 NSCLC
# HOP-92 NSCLC = tested on: HOP-92 NSCLC
# HS 578T breast = tested on: HS 578T breast
# HT29 colon = tested on: HT29 colon
# IGROV1 ovarian = tested on: IGROV1 ovarian
# K-562 leukemia = tested on: K-562 leukemia
# KM12 colon = tested on: KM12 colon
# LOX IMVI melanoma = tested on: LOX IMVI melanoma
# M14 melanoma = tested on: M14 melanoma
# MALME-3M melanoma = tested on: MALME-3M melanoma
# MCF7 breast = tested on: MCF7 breast
# MDA-MB-231 breast = tested on: MDA-MB-231 breast
# MDA-MB-435 = tested on: MDA-MB-435
# MDA-MB-468 breast = tested on: MDA-MB-468 breast
# MOLT-4 leukemia = tested on: MOLT-4 leukemia
# NCI-H226 lung = tested on: NCI-H226 lung
# NCI-H23 lung = tested on: NCI-H23 lung
# NCI-H460 lung = tested on: NCI-H460 lung
# NCI-H522 lung = tested on: NCI-H522 lung
# NCI/ADR-RES ovarian = tested on: NCI/ADR-RES ovarian
# OVCAR-3 ovarian = tested on: OVCAR-3 ovarian
# OVCAR-4 ovarian = tested on: OVCAR-4 ovarian
# OVCAR-5 ovarian = tested on: OVCAR-5 ovarian
# OVCAR-8 ovarian = tested on: OVCAR-8 ovarian
# PC-3 prostate = tested on: PC-3 prostate
# RPMI-8226 leukemia = tested on: RPMI-8226 leukemia
# RXF 393 renal = tested on: RXF 393 renal
# SF-268 CNS = tested on: SF-268 CNS
# SF-295 CNS = tested on: SF-295 CNS
# SF-539 CNS = tested on: SF-539 CNS
# SK-MEL-2 melanoma = tested on: SK-MEL-2 melanoma
# SK-MEL-28 melanoma = tested on: SK-MEL-28 melanoma
# SK-MEL-5 melanoma = tested on: SK-MEL-5 melanoma
# SK-OV-3 ovarian = tested on: SK-OV-3 ovarian
# SN12C renal = tested on: SN12C renal
# SNB-19 CNS = tested on: SNB-19 CNS
# SNB-75 CNS = tested on: SNB-75 CNS
# SR leukemia = tested on: SR leukemia
# SW-620 colon = tested on: SW-620 colon
# T-47D breast = tested on: T-47D breast
# TK-10 renal = tested on: TK-10 renal
# U251 CNS = tested on: U251 CNS
# UACC-257 melanoma = tested on: UACC-257 melanoma
# UACC-62 melanoma = tested on: UACC-62 melanoma
# UO-31 renal = tested on: UO-31 renal
smiles,measurement,setting,value
Brc1ccc(N/N=C/c2c[nH]c3ccccc23)nc1,GI50,786-0 renal,13.2 µM
same,TGI,786-0 renal,> 100 µM
same,GI50,A498 renal,35.2 µM
same,TGI,A498 renal,> 100 µM
same,GI50,A549 NSCLC,12.6 µM
same,TGI,A549 NSCLC,> 100 µM
same,GI50,ACHN renal,11.6 µM
same,TGI,ACHN renal,> 100 µM
same,GI50,BT-549 breast,0.17 µM
same,TGI,BT-549 breast,> 100 µM
same,GI50,CAKI-1 renal,4.35 µM
same,TGI,CAKI-1 renal,> 100 µM
same,GI50,CCRF-CEM leukemia,0.839 µM
same,TGI,CCRF-CEM leukemia,> 100 µM
same,GI50,COLO 205 colon,> 100 µM
same,TGI,COLO 205 colon,> 100 µM
same,GI50,DU-145 prostate,20.5 µM
same,TGI,DU-145 prostate,> 100 µM
same,GI50,EKVX NSCLC,4.44 µM
same,TGI,EKVX NSCLC,> 100 µM
same,GI50,HCC-2998 colon,9.35 µM
same,TGI,HCC-2998 colon,> 100 µM
same,GI50,HCT-116 colon,13.2 µM
same,TGI,HCT-116 colon,> 100 µM
same,GI50,HCT-15 colon,9.19 µM
same,TGI,HCT-15 colon,> 100 µM
same,GI50,HL-60(TB) leukemia,2.81 µM
same,TGI,HL-60(TB) leukemia,> 100 µM
same,GI50,HOP-62 NSCLC,11 µM
same,TGI,HOP-62 NSCLC,59.3 µM
same,GI50,HOP-92 NSCLC,6.66 µM
same,TGI,HOP-92 NSCLC,57.6 µM
same,GI50,HS 578T breast,7.45 µM
same,TGI,HS 578T breast,> 100 µM
same,GI50,HT29 colon,29.4 µM
same,TGI,HT29 colon,> 100 µM
same,GI50,IGROV1 ovarian,1.63 µM
same,TGI,IGROV1 ovarian,> 100 µM
same,GI50,K-562 leukemia,4.05 µM
same,TGI,K-562 leukemia,> 100 µM
same,GI50,KM12 colon,3.68 µM
same,TGI,KM12 colon,> 100 µM
same,GI50,LOX IMVI melanoma,6.47 µM
same,TGI,LOX IMVI melanoma,> 100 µM
same,GI50,M14 melanoma,78.5 µM
same,TGI,M14 melanoma,> 100 µM
same,GI50,MALME-3M melanoma,> 100 µM
same,TGI,MALME-3M melanoma,> 100 µM
same,GI50,MCF7 breast,2.43 µM
same,TGI,MCF7 breast,> 100 µM
same,GI50,MDA-MB-231 breast,2.2 µM
same,TGI,MDA-MB-231 breast,8.47 µM
same,GI50,MDA-MB-435,79.4 µM
same,TGI,MDA-MB-435,> 100 µM
same,GI50,MDA-MB-468 breast,1.88 µM
same,TGI,MDA-MB-468 breast,6.1 µM
same,GI50,MOLT-4 leukemia,2.67 µM
same,TGI,MOLT-4 leukemia,> 100 µM
same,GI50,NCI-H226 lung,3.78 µM
same,TGI,NCI-H226 lung,> 100 µM
same,GI50,NCI-H23 lung,> 100 µM
same,TGI,NCI-H23 lung,> 100 µM
same,GI50,NCI-H460 lung,14.1 µM
same,TGI,NCI-H460 lung,> 100 µM
same,GI50,NCI-H522 lung,2.53 µM
same,TGI,NCI-H522 lung,28 µM
same,GI50,NCI/ADR-RES ovarian,7.03 µM
same,TGI,NCI/ADR-RES ovarian,> 100 µM
same,GI50,OVCAR-3 ovarian,8.63 µM
same,TGI,OVCAR-3 ovarian,> 100 µM
same,GI50,OVCAR-4 ovarian,77.9 µM
same,TGI,OVCAR-4 ovarian,> 100 µM
same,GI50,OVCAR-5 ovarian,> 100 µM
same,TGI,OVCAR-5 ovarian,> 100 µM
same,GI50,OVCAR-8 ovarian,26.3 µM
same,TGI,OVCAR-8 ovarian,> 100 µM
same,GI50,PC-3 prostate,4.83 µM
same,TGI,PC-3 prostate,> 100 µM
same,GI50,RPMI-8226 leukemia,3.07 µM
same,TGI,RPMI-8226 leukemia,> 100 µM
same,GI50,RXF 393 renal,2.5 µM
same,TGI,RXF 393 renal,80.9 µM
same,GI50,SF-268 CNS,4.15 µM
same,TGI,SF-268 CNS,> 100 µM
same,GI50,SF-295 CNS,19.1 µM
same,TGI,SF-295 CNS,> 100 µM
same,GI50,SF-539 CNS,4.7 µM
same,TGI,SF-539 CNS,> 100 µM
same,GI50,SK-MEL-2 melanoma,> 100 µM
same,TGI,SK-MEL-2 melanoma,> 100 µM
same,GI50,SK-MEL-28 melanoma,> 100 µM
same,TGI,SK-MEL-28 melanoma,> 100 µM
same,GI50,SK-MEL-5 melanoma,25.6 µM
same,TGI,SK-MEL-5 melanoma,> 100 µM
same,GI50,SK-OV-3 ovarian,56.2 µM
same,TGI,SK-OV-3 ovarian,> 100 µM
same,GI50,SN12C renal,2.28 µM
same,TGI,SN12C renal,> 100 µM
same,GI50,SNB-19 CNS,11.4 µM
same,TGI,SNB-19 CNS,46.4 µM
same,GI50,SNB-75 CNS,0.385 µM
same,TGI,SNB-75 CNS,97.9 µM
same,GI50,SR leukemia,2.28 µM
same,TGI,SR leukemia,> 100 µM
same,GI50,SW-620 colon,76 µM
same,TGI,SW-620 colon,> 100 µM
same,GI50,T-47D breast,3.97 µM
same,TGI,T-47D breast,> 100 µM
same,GI50,TK-10 renal,48 µM
same,TGI,TK-10 renal,> 100 µM
same,GI50,U251 CNS,21 µM
same,TGI,U251 CNS,> 100 µM
same,GI50,UACC-257 melanoma,> 100 µM
same,TGI,UACC-257 melanoma,> 100 µM
same,GI50,UACC-62 melanoma,37.3 µM
same,TGI,UACC-62 melanoma,> 100 µM
same,GI50,UO-31 renal,1.46 µM
same,TGI,UO-31 renal,> 100 µM

# From PubChem BioAssay (NCI)
